We go through 3 compounds from ChEMBL document CHEMBL1649580, “Mosaic penicillin-binding protein 2 in Neisseria gonorrhoeae isolates collected in 2008 in San Francisco, California” (2009).

≈ marks a conversion by molar mass, not a printed value. A value given as a limit tells only on which side of the number the result lay.

In general, MIC refers to the lowest concentration found to suppress growth. A lower MIC goes with a more susceptible organism.

Common to all, as to type: functional
Assay [1] relates to Neisseria gonorrhoeae. Nature of the assay: Antibacterial activity against Neisseria gonorrhoeae isolate SM1 expressing SF-A mosaic penA allele by agar dilution method. (In general: Agar dilution tests growth on a series of plates holding different concentrations.)
Assay [2] deals with Neisseria gonorrhoeae. Nature of the assay: Antibacterial activity against Neisseria gonorrhoeae isolate SW1 expressing nonmosaic penA allele by agar dilution method.
Assay [3] relates to Neisseria gonorrhoeae. The assay can be described thus: Antibacterial activity against Neisseria gonorrhoeae isolate SM4 expressing SF-B mosaic penA allele by agar dilution method.
The test system of assay [4] is Neisseria gonorrhoeae. The assay can be described thus: Antibacterial activity against Neisseria gonorrhoeae isolate SM3 expressing SF-A mosaic penA allele by agar dilution method.
The test system of assay [5] is Neisseria gonorrhoeae. The assay can be described thus: Antibacterial activity against Neisseria gonorrhoeae isolate SM5 expressing SF-B mosaic penA allele by agar dilution method.
The test system of assay [6] is Neisseria gonorrhoeae. Nature of the assay: Antibacterial activity against Neisseria gonorrhoeae isolate SM2 expressing SF-A mosaic penA allele by agar dilution method.
Assay [7] has as its system Neisseria gonorrhoeae. The assay can be described thus: Antibacterial activity against Neisseria gonorrhoeae isolate SW2 expressing nonmosaic penA allele by agar dilution method.

On to `COCC1=C(C(=O)O)N2C(=O)[C@@H](NC(=O)/C(=N\OC)c3csc(N)n3)[C@H]2SC1` [CEFPODOXIME], for which the MIC was determined as 1 µg/mL (≈ 2.34 µM) against Neisseria gonorrhoeae [1]; 0.015 µg/mL (≈ 0.0351 µM) against Neisseria gonorrhoeae [2]; 0.06 µg/mL (≈ 0.14 µM) in the assay on Neisseria gonorrhoeae [3]; 1 µg/mL (≈ 2.34 µM) against Neisseria gonorrhoeae [4]; 0.25 µg/mL (≈ 0.585 µM) in the assay on Neisseria gonorrhoeae [5]; 0.5 µg/mL (≈ 1.17 µM) against Neisseria gonorrhoeae [6]. The same compound returned an MIC in the assay with Neisseria gonorrhoeae [7] of 0.03 µg/mL (≈ 0.0702 µM).

As for `CO/N=C(\C(=O)N[C@@H]1C(=O)N2C(C(=O)O)=C(CSc3nc(=O)c(O)nn3C)CS[C@H]12)c1csc(N)n1` [CEFTRIAXONE], the MIC against Neisseria gonorrhoeae [1] was 0.06 µg/mL (≈ 0.108 µM); against Neisseria gonorrhoeae [2], ≤ 0.008 µg/mL; with Neisseria gonorrhoeae [3] it was ≤ 0.008 µg/mL; against Neisseria gonorrhoeae [4] it was 0.03 µg/mL (≈ 0.0541 µM); against Neisseria gonorrhoeae [5], ≤ 0.008 µg/mL; in the assay with Neisseria gonorrhoeae [6], 0.06 µg/mL (≈ 0.108 µM). In addition, the MIC in the assay on Neisseria gonorrhoeae [7] was ≤ 0.008 µg/mL.

In the case of `C=CC1=C(C(=O)O)N2C(=O)[C@@H](NC(=O)/C(=N\OCC(=O)O)c3csc(N)n3)[C@H]2SC1` [CEFIXIME], the MIC in the assay with Neisseria gonorrhoeae [1] is 0.25 µg/mL (≈ 0.551 µM); with Neisseria gonorrhoeae [2], ≤ 0.008 µg/mL; against Neisseria gonorrhoeae [3], ≤ 0.008 µg/mL; against Neisseria gonorrhoeae [4], 0.25 µg/mL (≈ 0.551 µM); in the assay with Neisseria gonorrhoeae [5] it was 0.015 µg/mL (≈ 0.0331 µM); in the assay with Neisseria gonorrhoeae [6] it was 0.125 µg/mL (≈ 0.276 µM). The compound also yielded an MIC against Neisseria gonorrhoeae [7] of 0.015 µg/mL (≈ 0.0331 µM).
